From patent US4520112A, “Assay method for organic calcium antagonist drugs and a kit for such an assay” (The Johns Hopkins University, priority 1983, dated 1985)

Key:
[1] = system: calcium channel receptor (bovine cerebral cortex membranes); experiment: 3H-nitrendipine binding to cerebral cortex membranes (calcium channel receptor); details: drug added to human plasma
[2] = system: calcium antagonist receptors; details: literature reports; cited from earlier work

Compound	effect on 3H-nitrendipine binding [1]	effect on 3H-nitrendipine binding [2]
COCCOC(=O)C1=C(C)NC(C)=C(C(=O)OC(C)C)C1c1cccc([N+](=O)[O-])c1 (stereo not shown) [Nimodipine, nimodipine]	inhibition	
COc1ccc([C@@H]2Sc3ccccc3N(CCN(C)C)C(=O)[C@@H]2OC(C)=O)cc1 [diltiazem]	reversal of tiapamil induced reduction	interact allosterically with the same receptor site and also reduce ^3 H-nitrendipine binding
COC(=O)C1=C(C)NC(C)=C(C(=O)OC)C1c1ccccc1[N+](=O)[O-] [nifedipine]		compete directly
CC(Cc1ccccc1)NCCC(c1ccccc1)c1ccccc1 (stereo not shown) [prenylamine]	inhibition	
COc1ccc(CCN(C)CCCC2(c3ccc(OC)c(OC)c3)S(=O)(=O)CCCS2(=O)=O)cc1OC [tiapamil]	reduction	
COc1ccc(CCN(C)CCCC(C#N)(c2ccc(OC)c(OC)c2)C(C)C)cc1OC (stereo not shown) [verapamil]		interact allosterically with the same receptor site and also reduce ^3 H-nitrendipine binding
